Experimental data reported in the supplement of paper PMC8149375.
Several values for one entry are separate records, joined by “and”; a condition that tells them apart may be missing. Identical values can stand only once.

How the values were obtained:
Details in all cases: treatment: drug alone; 5 days
[1] = tested on: 769-P; experiment: GI50, drug alone; higher = less potent
Method: (§1)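 Primary HTS: 8 RCC cell lines treated with 8 doses (up to 10 uM) of each library drug alone for 5 days; viability read by CellTiter-Glo and normalised to DMSO. GI50 was fitted with XLfit (4-parameter), AUC is the area under the dose-response curve, and minimum viability is the lowest fraction of DMSO viability across doses.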

[2] = tested on: 786-O; experiment: GI50, drug alone; higher = less potent
Method: as §1

[3] = tested on: A498; experiment: GI50, drug alone; higher = less potent
Method: as §1

[4] = tested on: ACHN; experiment: GI50, drug alone; higher = less potent
Method: as §1

[5] = tested on: CAKI-1; experiment: GI50, drug alone; higher = less potent
Method: as §1

[6] = tested on: SN12C; experiment: GI50, drug alone; higher = less potent
Method: as §1

[7] = tested on: TK-10; experiment: GI50, drug alone; higher = less potent
Method: as §1

[8] = tested on: UO-31; experiment: GI50, drug alone; higher = less potent
Method: as §1

[9] = tested on: 769-P; experiment: minimum viability across doses, drug alone, relative to DMSO (fraction); higher = less growth inhibition
Method: as §1

[10] = tested on: 786-O; experiment: as above
Method: as §1

[11] = tested on: A498; experiment: as above
Method: as §1

[12] = tested on: ACHN; experiment: as above
Method: as §1

[13] = tested on: CAKI-1; experiment: as above
Method: as §1

[14] = tested on: SN12C; experiment: as above
Method: as §1

[15] = tested on: TK-10; experiment: as above
Method: as §1

[16] = tested on: UO-31; experiment: as above
Method: as §1

[17] = tested on: 769-P; experiment: AUC of dose-response viability curve, drug alone (arbitrary (AUC of normalised viability)); higher = less growth inhibition
Method: as §1

[18] = tested on: 786-O; experiment: as above
Method: as §1

[19] = tested on: A498; experiment: as above
Method: as §1

[20] = tested on: ACHN; experiment: as above
Method: as §1

[21] = tested on: CAKI-1; experiment: as above
Method: as §1

[22] = tested on: SN12C; experiment: as above
Method: as §1

[23] = tested on: TK-10; experiment: as above
Method: as §1

[24] = tested on: UO-31; experiment: as above
Method: as §1

Row | Compound | GI50, drug alone [2] | GI50, drug alone [4] | GI50, drug alone [1] | GI50, drug alone [3] | GI50, drug alone [5] | GI50, drug alone [6] | GI50, drug alone [7] | GI50, drug alone [8] [nM] | minimum viability across doses [9] | minimum viability across doses [10] | minimum viability across doses [11] | minimum viability across doses [12] | minimum viability across doses [13] | minimum viability across doses [14] | minimum viability across doses [15] | minimum viability across doses [16] | AUC of dose-response viability curve [17] | AUC of dose-response viability curve [18] | AUC of dose-response viability curve [19] | AUC of dose-response viability curve [20] | AUC of dose-response viability curve [21] | AUC of dose-response viability curve [22] | AUC of dose-response viability curve [23] | AUC of dose-response viability curve [24]
1 | C[C@@H](Oc1cc(-c2cnn(C3CCNCC3)c2)cnc1N)c1c(Cl)ccc(F)c1Cl | 1840 nM | 4030 nM | 6060 nM | 9410 nM | 4010 nM | 2430 nM | 5340 nM | 4170 | 0.117 | 0.0211 | 0.346 | 0.225 | 0.0408 | 0.154 | 0.239 | 0.169 | 3.14 | 2.67 | 3.48 | 3.07 | 3.06 | 2.68 | 3.23 | 3.1
2 | CCc1cc2c(cc1N1CCC(N3CCOCC3)CC1)C(C)(C)c1[nH]c3cc(C#N)ccc3c1C2=O | > 10000 nM | 5470 nM | > 10000 nM | > 10000 nM | 5020 nM | > 10000 nM | > 10000 nM | > 10000 | 0.922 | 0.655 | 1.06 | 0.366 | 0.428 | 0.801 | 0.612 | 1.02 | 3.67 | 3 | 5.08 | 3 | 2.98 | 3.28 | 2.93 | 6.33
3 | CN1CCN(c2cccc(Nc3nc4c(-c5ccc(S(C)(=O)=O)cc5)cccn4n3)c2)CC1 | > 10000 nM | 1400 nM | > 10000 nM | > 10000 nM | 2310 nM | > 10000 nM | 3530 nM | > 10000 | 0.782 | 0.585 | 1.13 | 0.293 | 0.244 | 0.599 | 0.298 | 0.707 | 3.49 | 3.18 | 4.91 | 2.65 | 2.85 | 3.13 | 2.82 | 4.6
4 | CO[C@@H](C(=O)N1Cc2[nH]nc(NC(=O)c3ccc(N4CCN(C)CC4)cc3)c2C1)c1ccccc1 | 227 nM and 213 nM | 1300 nM and 603 nM | 8850 nM and 8390 nM | 8180 nM and > 10000 nM | 1110 nM and 960 nM | 1190 nM and 929 nM | 2640 nM and 1850 nM | > 10000 | 0.463 and 0.473 | 0.00938 and 0.00426 | 0.516 and 0.594 | 0.176 and 0.142 | 0.139 and 0.0977 | 0.174 and 0.144 | 0.174 and 0.139 | 0.7 and 0.698 | 3.09 and 3.4 | 1.52 and 1.67 | 3.26 and 3.77 | 2.19 and 2.18 | 2.45 and 2.51 | 2.38 and 2.35 | 2.6 and 2.61 | 3.34 and 3.7

Continued, in another order:

Row | GI50, drug alone [2] | GI50, drug alone [4] | Compound | GI50, drug alone [1] | GI50, drug alone [3] | GI50, drug alone [5] | GI50, drug alone [6] | GI50, drug alone [7] | GI50, drug alone [8] [nM] | minimum viability across doses [9] | minimum viability across doses [10] | minimum viability across doses [11] | minimum viability across doses [12] | minimum viability across doses [13] | minimum viability across doses [14] | minimum viability across doses [15] | minimum viability across doses [16] | AUC of dose-response viability curve [17] | AUC of dose-response viability curve [18] | AUC of dose-response viability curve [19] | AUC of dose-response viability curve [20] | AUC of dose-response viability curve [21] | AUC of dose-response viability curve [22] | AUC of dose-response viability curve [23] | AUC of dose-response viability curve [24]
5 | 24.3 nM | 50.8 nM | COc1cc2ncnc(Nc3ccc(F)c(Cl)c3)c2cc1NC(=O)/C=C/CN1CCCCC1 | 210 nM | 3000 nM | 1300 nM | 1360 nM | 146 nM | 2820 | 0.0108 | 0.0062 | 0.0166 | 0.00434 | 0.00809 | 0.00743 | 0.0112 | 0.0173 | 1.85 | 1.39 | 3.2 | 1.4 | 2.17 | 2.09 | 1.7 | 2.7
6 | 1320 nM | 1140 nM | COc1cc2c(Oc3ccc(NC(=O)C4(C(=O)Nc5ccc(F)cc5)CC4)cc3F)ccnc2cc1OCCCN1CCOCC1 | 2910 nM | 3260 nM | 575 nM | 1200 nM | 1070 nM | 2910 | 0.0122 | 0.00765 | 0.0481 | 0.00485 | 0.00629 | 0.0104 | 0.00697 | 0.0119 | 2.75 | 2.39 | 3.15 | 2.6 | 2.12 | 2.34 | 2.37 | 3.04
7 | 450 nM | 1090 nM | O=C1NC(=O)/C(=C/c2ccc3nccc(-c4ccncc4)c3c2)S1 | 6260 nM | 4570 nM | 412 nM | 1160 nM | 2290 nM | 498 | 0.43 | 0.216 | 0.341 | 0.219 | 0.125 | 0.26 | 0.467 | 0.0334 | 2.87 | 2.19 | 2.97 | 2.48 | 2.21 | 2.4 | 2.63 | 2.45
8 | > 10000 nM | > 10000 nM | COCC(=O)NC/C=C/c1ccc2ncnc(Nc3ccc(Oc4ccc(C)nc4)c(C)c3)c2c1 | > 10000 nM | > 10000 nM | > 10000 nM | > 10000 nM | > 10000 nM | > 10000 | 0.878 | 0.717 | 1.07 | 0.61 | 0.937 | 0.739 | 0.661 | 1.11 | 3.37 | 2.92 | 4.6 | 3.39 | 3.51 | 3.1 | 3.07 | 5.09
9 | 2760 nM | 1860 nM | CN(C)c1ccc(-c2nc3c(N4CCN(CC(=O)Nc5nccs5)CC4)c(Cl)cnc3[nH]2)cc1 | 5510 nM | > 10000 nM | 1260 nM | 5400 nM | > 10000 nM | 2010 | 0.39 | 0.259 | 0.622 | 0.18 | 0.115 | 0.434 | 0.574 | 0.0202 | 2.85 | 2.24 | 4.21 | 2.58 | 2.57 | 2.76 | 2.91 | 3.93
